Laboratory results: the CheMixHub viscosity set
± gives the uncertainty stated by the source.

Test: xn = mol fraction of the nth substance listed

CCC(=O)OC + Clc1ccccc1
viscosity [mPa·s], 101.3 kPa
Settings | 308.15 K | 318.15 K
x1 = 0.0485 | 0.646 ± 0.004 | 0.598 ± 0.004
x1 = 0.0993 | 0.635 ± 0.004 | 0.589 ± 0.004
x1 = 0.2038 | 0.612 ± 0.004 | 0.57 ± 0.004
x1 = 0.2614 | 0.599 ± 0.004 | 0.559 ± 0.004
x1 = 0.4087 | 0.567 ± 0.004 | 0.531 ± 0.004
x1 = 0.4556 | 0.556 ± 0.004 | 0.522 ± 0.004
x1 = 0.6041 | 0.523 ± 0.004 | 0.493 ± 0.004
x1 = 0.7011 | 0.503 ± 0.004 | 0.475 ± 0.004
x1 = 0.8064 | 0.479 ± 0.004 | 0.454 ± 0.004
x1 = 0.9054 | 0.457 ± 0.004 | 0.434 ± 0.004
x1 = 0.9486 | 0.448 ± 0.004 | 0.426 ± 0.004

CCCC[N+]1=C2CCCCCN2CCC1.c1c[n-]cn1 + O
viscosity [mPa·s], 100 kPa
Settings | x1 = 0.0298 | x1 = 0.0697 | x1 = 0.0991 | x1 = 0.2001 | x1 = 0.3002 | x1 = 0.439 | x1 = 0.5972 | x1 = 0.7501 | x1 = 0.89
293.15 K | 4.316 ± 0.19 | 12.27 ± 0.34 | 19.53 ± 0.55 | 55.65 ± 1.3 | 97.57 ± 2.9 | 133.7 ± 4.9 | 136.6 ± 5.2 | 127.6 ± 4.7 | 117.4 ± 4.1
298.15 K | 3.347 ± 0.15 | 9.898 ± 0.28 | 15.3 ± 0.41 | 39.88 ± 0.93 | 66.69 ± 1.6 | 88.91 ± 2.5 | 91.45 ± 2.7 | 86.9 ± 2.5 | 80.42 ± 2.2
303.15 K | 2.838 ± 0.12 | 8.133 ± 0.22 | 12.48 ± 0.32 | 29.5 ± 0.68 | 47.22 ± 1.1 | 61.57 ± 1.4 | 63.37 ± 1.5 | 60.13 ± 1.4 | 57.19 ± 1.3
308.15 K | 2.449 ± 0.1 | 6.778 ± 0.18 | 9.929 ± 0.25 | 22.51 ± 0.51 | 34.56 ± 0.78 | 44.11 ± 1 | 45.74 ± 1.1 | 43.8 ± 1 | 41.93 ± 1
313.15 K | 2.138 ± 0.087 | 5.738 ± 0.15 | 8.244 ± 0.2 | 17.58 ± 0.4 | 26.15 ± 0.6 | 32.54 ± 0.76 | 33.55 ± 0.79 | 32.34 ± 0.76 | 31.79 ± 0.76

Nc1cccc2ccccc12 + CCCO
viscosity [mPa·s], 101 kPa
Settings | x1 = 0.02914 | x1 = 0.0566 | x1 = 0.1072 | x1 = 0.1525 | x1 = 0.1936 | x1 = 0.2308 | x1 = 0.2648
293.15 K | 2.371 ± 0.054 | 2.516 ± 0.057 | 2.846 ± 0.064 | 3.22 ± 0.072 | 3.628 ± 0.081 | 4.054 ± 0.09 | 4.498 ± 0.099
303.15 K | 1.836 ± 0.043 | 1.937 ± 0.045 | 2.154 ± 0.05 | 2.392 ± 0.055 | 2.662 ± 0.06 | 2.931 ± 0.066 | 3.222 ± 0.072
313.15 K | 1.445 ± 0.036 | 1.518 ± 0.037 | 1.674 ± 0.04 | 1.839 ± 0.043 | 2.02 ± 0.047 | 2.211 ± 0.051 | 2.403 ± 0.055
323.15 K | 1.153 ± 0.031 | 1.21 ± 0.032 | 1.324 ± 0.034 | 1.443 ± 0.036 | 1.57 ± 0.038 | 1.7 ± 0.041 | 1.838 ± 0.043
